Key:
[1] = system: 1975, 2008, HT29 cells; test: 3H-FLT cell uptake (mammalian thymidine kinase activities); format: cell-based; settings: 48 h post treatment
Experimental: FIG. 10D is a graph illustrating the effect of CP9 on mammalian thymidine kinase activities in 1975, 2008, HT29, and MEFs cells as determined by ^3H-FLT cell uptake studies 48 h post treatment. Results were expressed as mean counts per minute/μg protein/initial dose±S.E.M. *, p<0.05 vs. carrier control treated cells.
To determine the specificity of CP9 in inhibition of glucose metabolism, normal MEF cells were used as a control.
To determine the downstream effects of lead compounds on glucose metabolism, 1.5×10^5 293T, 1975 and 2008 and MEFs cells plated in 24-well plate for 24 h, prior to treatment with different concentrations of CP9 for 24 or 48 h and subsequent incubation with 1 μCi of ^3H-FDG in 500 μl of medium for 1 h at 37° C. Cells treated with 2.5 μM of PU-H71 served as a positive control. The total counts in each sample were normalized to that of the dose added to each well and to the amount of protein, and expressed as mean counts/dose/μg protein±S.E.M. Likewise, the effect of CP9 on cell proliferation was determined using 1 μCi of ^3H-FLT per well after 2 h of incubation at 37° C.

[2] = target: T1, Hsp90β/p23 interactions (Homo sapiens, UniProt P08238); test: HTS dose response, 293T cells stably expressing Hsp90β/p23 split RL reporters; format: cell-based; settings: inhibition of bioluminescence signals by 50% vs carrier control; 8 point dose response 0.156-20 μM; 24 h
T1 construct: expressed in transfected cells; also with FL-eGFP reporter (293Tβ-FG) and as xenografts in nude mice
Experimental: Novel Hsp90 inhibitors using a commercial 30,176 small molecule chemical compound library with unknown targets and molecular mechanisms (FIG. 9B) were also identified. 293T cells stably expressing Hsp90α/p23 or Hsp90β/p23 split RL reporters were treated with each compound at 8.3 μM.
Baseline complemented RL activities were determined 90 mins after addition of 20 μl of ENDUREN® (10 μM final concentration) (Promega, Madison, Wis.) using the Analyst GT (Molecular Device, Sunnyvale, Calif.), with an acquisition time of 0.2 sec per well. Cells were incubated with compounds for 24 h prior to re-determination of complemented RL activities, and normalized to the mean RL activities of untreated cells in columns 1-2. Another small molecule chemical library with 30,176 compounds (SPECS, Wakefield, R.I.) was also used in screening modulators of Hsp90(α/β)/p23 inhibitors (at 8.3 μM, one drug per well for initial screening). For dose response/confirmation assay the compounds were tested in duplicate in an 8 point (0.156-20 μM) dose response assay for RL activities for both Hps90(α/β)/p23 interactions. The effect of each compound on cell proliferation at 20 μM was determined using Cell Titer-Blue assay in duplicate wells. […]

[3] = system: V79 lung cancer cells; test: Sensitivity to DOX, Alamar Blue assay; format: cell-based; settings: DOX 0.31-10 μM with CP9 8 μM, 24 h
Experimental: (§1) FIGS. 13A-13C illustrate the inhibition of cell proliferation of DOX-resistant V79/ADR lung cancer cells by CP9 and the Hsp90 inhibitor PU-H71 in cell culture. V79 lung cancer cells and […] cells that are resistant to DOX were treated with DOX (0.31-10 μM) in the presence or absence of CP9 (8 μM) for 24 h before determination of cell number by an Alamar Blue assay.
(§2) Both Hsp90 isoforms (α and β) are expressed in cancer cells, but Hsp90β is constitutively expressed, whereas the expression of Hsp90α is highly inducible during stress and drug treatment. Using the genetically encoded split Renilla reporter system according to the disclosure, it was possible to decipher the individual contributions of each isoform in determining the sensitivity of Hsp90 inhibitors. It was reported that the transcription of MDR1 is regulated by HSF-1, which in turn is regulated by Hsp90α (Trepel et al., (2010) Nat. Rev. Cancer 10: 537-549). To determine the biological significance of CP9 selectivity in inhibiting Hsp90α/p23 interactions, V79 lung cancer cells and V79/ADR cells that overexpress multidrug-resistant protein and are insensitive to growth inhibition by doxorubicin (DOX) were used. V79 and V79/ADR cells were treated with DOX alone or in the presence of CP9. On the other hand, the addition of CP9 sensitized V79/ADR cells to DOX, as shown by the decrease in cell proliferation relative to treatment with DOX alone, as shown in FIG. 13B. […] The results also are consistent with the observation that derivatives of Hsp90 inhibitor peptides sensitize cancer cells with overexpression of MDR to epirubicin (a class of anthracyclines that includes DOX) (Molnar et al., (2007) In Vivo 21: 429-433).

[4] = system: DOX-resistant V79/ADR lung cancer cells; test: Sensitivity to DOX, Alamar Blue assay; format: cell-based; settings: DOX 0.31-10 μM with inhibitor (CP9 8 μM), 24 h
Experimental: as §1, §2

[5] = system: U87-MG cells; test: Alamar Blue cell proliferation; format: cell-based, human; settings: 24 h
Experimental: FIG. 6A is a series of graphs illustrating the effect of CP9 on cell proliferation determined by an Alamar Blue assay. The indicated cancer cell lines were treated with different concentrations of CP9 for 24 h prior to incubation with Alamar blue for 4 h. The Hsp90 inhibitors PU-H71 and 17AAG were used as positive controls. Emissions at 570 nm in CP9-treated cells were normalized to that of carrier control-treated cells. Results are expressed as normalized cell proliferation±S.E.M.
CP9 had no effect on proliferation of normal MEFs. Since CP9 led to decrease in phosphorylated Akt (FIGS. 5A and 10A-10C), it was expected to inhibit glucose metabolism through relief of inhibition of glycogen synthase kinase […] (Nair & Olanow (2008) J. Biol. Chem. M707238200; Dandekar et al., (2007) J. Nucl. Med. 48: 602-607).

T1 sequence (P08238 whole entry): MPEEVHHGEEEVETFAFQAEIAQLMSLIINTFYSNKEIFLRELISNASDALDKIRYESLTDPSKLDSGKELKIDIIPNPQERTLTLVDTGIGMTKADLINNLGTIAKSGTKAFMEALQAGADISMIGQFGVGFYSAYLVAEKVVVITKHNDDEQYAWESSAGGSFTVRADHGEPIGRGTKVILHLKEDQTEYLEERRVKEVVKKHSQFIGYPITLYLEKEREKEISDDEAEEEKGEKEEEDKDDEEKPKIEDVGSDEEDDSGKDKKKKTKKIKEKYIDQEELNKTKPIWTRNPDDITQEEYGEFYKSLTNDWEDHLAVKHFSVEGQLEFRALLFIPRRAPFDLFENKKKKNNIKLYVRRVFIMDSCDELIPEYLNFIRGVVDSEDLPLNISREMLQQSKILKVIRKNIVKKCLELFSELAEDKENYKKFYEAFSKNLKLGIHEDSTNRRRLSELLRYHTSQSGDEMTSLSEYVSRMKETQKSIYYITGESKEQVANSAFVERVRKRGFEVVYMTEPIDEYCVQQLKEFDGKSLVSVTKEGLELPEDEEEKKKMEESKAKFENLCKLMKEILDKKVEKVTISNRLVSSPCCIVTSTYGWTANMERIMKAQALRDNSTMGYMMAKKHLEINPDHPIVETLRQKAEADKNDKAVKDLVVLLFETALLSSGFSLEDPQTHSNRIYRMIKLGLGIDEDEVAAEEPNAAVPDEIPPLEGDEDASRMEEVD

## Cc1cc(NC(=O)CSc2nc(-c3cccs3)cc(C(F)(F)F)n2)no1 [CP9, N-(5-methylisoxazol-3-yl)-2-(4-(thiophen-2-yl)-6-(trifluoromethyl)pyrimidin-2-ylthio)acetamide]
[1]
  3H-FLT uptake in cancer cell lines: inhibits
[2]
  IC50: 15.3 µM
[3]
  sensitivity of drug-sensitive V79 cells to DOX: did not affect the sensitivity
[4]
  sensitivity of drug-resistant V79/ADR cells to DOX: partially restored the sensitivity
[5]
  inhibition of cell proliferation vs PU-H71 and 17-AAG: more effective than PU-H71 and 17-AAG
